Values quoted from earlier work, collected in patent US11912734B2, “Solid-phase synthesis of oligonucleotides containing N6-(2-deoxy-alpha,beta-derythropentofuranosyl)-2,6-diamino-4-hydroxy-5-formamidopyrimidine (Fapy⋅dG)” (The Johns Hopkins University, priority 2020, dated 2024).

Assays:
Fpg = Fpg (Escherichia coli, UniProt P05523); details: Fapy·dG:dC versus Fapy·dG:dA
MutY = MutY (Escherichia coli, UniProt P17802); details: relative to 8-OxodGuo:dA duplex; more rapid than from a dG:dA mispair
MutY, sequence (P17802 whole entry): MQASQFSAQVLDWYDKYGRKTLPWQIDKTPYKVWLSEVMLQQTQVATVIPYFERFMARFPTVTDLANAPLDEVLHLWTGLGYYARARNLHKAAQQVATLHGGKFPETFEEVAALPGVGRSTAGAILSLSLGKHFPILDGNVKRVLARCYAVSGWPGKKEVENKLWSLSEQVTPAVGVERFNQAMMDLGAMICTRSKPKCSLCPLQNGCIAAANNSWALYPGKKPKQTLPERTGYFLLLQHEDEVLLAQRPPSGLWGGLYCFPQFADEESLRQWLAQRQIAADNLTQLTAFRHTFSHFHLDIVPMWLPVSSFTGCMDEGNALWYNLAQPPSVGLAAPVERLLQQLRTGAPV

hOGG1 = hOGG1 (Homo sapiens, UniProt O15527); details: dC versus dA opposite the lesion
hOGG1, sequence (O15527 whole entry): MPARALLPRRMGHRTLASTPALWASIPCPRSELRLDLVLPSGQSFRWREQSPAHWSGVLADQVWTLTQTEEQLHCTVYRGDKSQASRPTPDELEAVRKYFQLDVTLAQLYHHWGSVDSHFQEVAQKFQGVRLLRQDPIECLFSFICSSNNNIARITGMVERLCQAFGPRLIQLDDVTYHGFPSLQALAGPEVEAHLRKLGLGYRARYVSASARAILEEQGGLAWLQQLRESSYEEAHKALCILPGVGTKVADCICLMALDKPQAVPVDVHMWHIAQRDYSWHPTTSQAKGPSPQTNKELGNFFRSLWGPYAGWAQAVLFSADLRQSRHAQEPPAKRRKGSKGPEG

Fpg, sequence (P05523 whole entry): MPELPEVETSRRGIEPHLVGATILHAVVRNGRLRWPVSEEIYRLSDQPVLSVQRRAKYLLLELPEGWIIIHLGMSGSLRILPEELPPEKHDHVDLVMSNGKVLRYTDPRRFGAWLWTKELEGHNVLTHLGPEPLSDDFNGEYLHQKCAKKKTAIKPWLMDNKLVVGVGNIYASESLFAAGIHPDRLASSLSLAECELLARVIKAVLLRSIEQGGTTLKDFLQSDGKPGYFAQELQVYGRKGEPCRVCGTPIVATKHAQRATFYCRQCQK

Question: Which results are given for `Nc1nc(O)c(NC=O)c(NC2C[C@H](O)[C@@H](CO)O2)n1` (stereo partly drawn) [Fapy·dG, N6-(2-Deoxy-α,β-D-erythropentofuranosyl)-2,6-diamino-4-hydroxy-5-formamidopyrimidine]?
Answer: efficiency of glycosidic bond hydrolysis of the lesion in a Fapy·dG:dC base pair relative to opposite dA (Fpg): ~20 times; incision of mismatched dA opposite Fapy·dG, more slowly than from a duplex containing 8-OxodGuo:dA (MutY): 4 fold; discrimination against a Fapy·dG:dA base pair (hOGG1): more than 40 fold
